The compounds below were run on bovine cardiac myofibrils (assay: Myofibril assay: PK/LDH-coupled steady-state ATPase activity of skinned bovine cardiac myofibrils). Conditions: Ca2+ activating to 75% of maximal rate.
Format: biochemical
In short: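 Steady-state ATPase of detergent-skinned bovine left-ventricular myofibrils (1 mg/mL), PK/LDH-coupled NADH read at 340 nm, in PIPES/MgCl2 buffer pH 6.8 with 50 μM ATP, 0.6 mM EGTA and CaCl2 set for 50% or 75% activation. Inhibition of activity measured.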

| Compound | CDMF75 IC15 [nM] |
| --- | --- |
| CNC(=O)N1CC2(C1)C(=O)N(Cc1ccc(C#N)cc1)CC(=O)N2Cc1ccc(C(F)(F)F)cc1 [Compound 336, 8-(4-cyanobenzyl)-N-methyl-6,9-dioxo-5-(4-(trifluoromethyl)benzyl)-2,5,8-triazaspiro[3.5]nonane-2-carboxamide] | 1100 |
| CNC(=O)N1CC2(C1)C(=O)N(Cc1ccc(Cl)cc1)CC(=O)N2Cc1ccc(C(F)(F)F)cc1 [Compound 337, 8-(4-chlorobenzyl)-N-methyl-6,9-dioxo-5-(4-(trifluoromethyl)benzyl)-2,5,8-triazaspiro[3.5]-nonane-2-carboxamide] | 1630 |
| CNC(=O)N1CC2(C1)C(=O)N(C(C)c1ccc(C#N)cc1)CC(=O)N2Cc1ccc(C(F)(F)F)cc1 (stereo not drawn) [Compound 338, 8-(1-(4-cyanophenyl)ethyl)-N-methyl-6,9-dioxo-5-(4-(trifluoromethyl)benzyl)-2,5,8-triazaspiro[3.5]nonane-2-carboxamide] | 1510 |
| CC(=O)N1CC2(C1)C(=O)N(c1ccc(Cl)cc1F)CC(=O)N2[C@@H](C)c1ccc(C(F)(F)F)cc1 [Compound 340, (S)-2-acetyl-8-(4-chloro-2-fluorophenyl)-5-(1-(4-(trifluoromethyl)phenyl)-ethyl)-2,5,8-triazaspiro-[3.5]nonane-6,9-dione] | 700 |
| CC(=O)N1CC2(C1)C(=O)N(c1ccc(Cl)cc1F)C(C)C(=O)N2Cc1ccc(C(F)(F)F)cc1 (stereo not drawn) [Compound 341, 2-acetyl-8-(4-chloro-2-fluorophenyl)-7-methyl-5-(4-(trifluoromethyl)benzyl)-2,5,8-triazaspiro[3.5]nonane-6,9-dione] | 5400 |
| COCC1C(=O)N(Cc2ccc(Cl)cc2)C2(CN(c3ccc(C#N)cn3)C2)C(=O)N1C(C)C (stereo not drawn) [Compound 347, 6-(5-(4-chlorobenzyl)-8-isopropyl-7-(methoxymethyl)-6,9-dioxo-2,5,8-triazaspiro[3.5]nonan-2-yl)nicotinonitrile] | 26400 |
| N#Cc1ccc(N2CCC3(C2)C(=O)N(c2ccc([N+](=O)[O-])cc2)CC(=O)N3Cc2ccc(Cl)cc2)nc1 (stereo not drawn) [Compound 348, 6-(6-(4-chlorobenzyl)-9-(4-nitrophenyl)-7,10-dioxo-2,6,9-triazaspiro[4.5]decan-2-yl)nicotinonitrile] | 700 |
| CNC(=O)N1CCC2(C1)C(=O)N(c1ccc([N+](=O)[O-])cc1)CC(=O)N2Cc1ccc(Cl)cc1 (stereo not drawn) [Compound 349, 6-(4-chlorobenzyl)-N-methyl-9-(4-nitrophenyl)-7,10-dioxo-2,6,9-triazaspiro[4.5]decane-2-carboxamide] | 900 |
| N#Cc1ccc(N2CC3(C2)C(=O)N(c2ccccc2)CC(=O)N3Cc2ccc(C(F)(F)F)cc2)nc1 [Compound 350, 6-(6,9-dioxo-8-phenyl-5-(4-(trifluoromethyl)benzyl)-2,5,8-triazaspiro[3.5]nonan-2-yl)nicotinonitrile] | 5500 |
| CC(C)NC(=O)N1CCC2(C1)C(=O)N(C(C)C)CC(=O)N2Cc1ccc(Cl)cc1 (stereo not drawn) [Compound 383, 6-(4-chlorobenzyl)-N,9-diisopropyl-7,10-dioxo-2,6,9-triazaspiro[4.5]-decane-2-carboxamide] | >39000 |
| CC(C)N1CC(=O)N(Cc2ccc(Cl)cc2)C2(CCN(C(=O)Nc3ccccn3)C2)C1=O (stereo not drawn) [Compound 385, 6-(4-chlorobenzyl)-9-isopropyl-7,10-dioxo-N-(pyridin-2-yl)-2,6,9-triazaspiro[4.5]decane-2-carboxamide] | >39000 |
| COCCNC(=O)N1CCC2(C1)C(=O)N(C(C)C)CC(=O)N2Cc1ccc(Cl)cc1 (stereo not drawn) [Compound 387, 6-(4-chlorobenzyl)-9-isopropyl-N-(2-methoxy-ethyl)-7,10-dioxo-2,6,9-triazaspiro[4.5]decane-2-carboxamide] | >39000 |
| CC(C)(C)OC(=O)[C@H]1C[C@]2(C1)C(=O)N(c1ccc(C#N)cc1F)CC(=O)N2Cc1ccc(C(F)(F)F)cc1 [Compound 429B] | 200 |
| Cc1noc([C@H]2C[C@]3(C2)C(=O)N(c2ccc(C#N)cc2F)CC(=O)N3Cc2ccc(C(F)(F)F)cc2)n1 [Compound 432B] | 500 |
| Cc1cnc(C2CC3(C2)C(=O)N(c2ccc(C#N)cc2F)CC(=O)N3Cc2ccc(C(F)(F)F)cc2)o1 (stereo not drawn) [Compound 436B] | 300 |
| Cc1coc([C@H]2C[C@]3(C2)C(=O)N(c2ccc(C#N)cc2F)CC(=O)N3Cc2ccc(C(F)(F)F)cc2)n1 [Compound 442B] | 400 |
| N#Cc1ccc(N2CC(=O)N(Cc3ccc(C(F)(F)F)cc3)[C@]3(C[C@H](C(=O)N4CCOCC4)C3)C2=O)c(F)c1 [Compound 444B] | 200 |
| N#Cc1ccc(N2CC(=O)N(Cc3ccc(C(F)(F)F)cc3)[C@]3(C[C@H](c4nnc(C(F)F)o4)C3)C2=O)c(F)c1 [Compound 454B] | 100 |

| Compound | CDMF75 IC15 [nM] |
| --- | --- |
| N#Cc1ccc(N2CC(=O)N(Cc3ccc(C(F)(F)F)cc3)[C@]3(C[C@H](C(=O)NC4CC4)C3)C2=O)c(F)c1 [Compound 459, (2r,4r)-8-(4-cyano-2-fluoro-phenyl)-N-cyclopropyl-6,9-dioxo-5-(4-(trifluoromethyl)benzyl)-5,8-diazaspiro[3.5]nonane-2-carboxamide] | 4500 |
| CNC(=O)N[C@H]1C[C@]2(C1)C(=O)N(c1ccc(C#N)cc1F)CC(=O)N2Cc1ccc(C(F)(F)F)cc1 [Compound 463B] | 400 |
| N#Cc1ccc(N2CC(=O)N(Cc3ccc(C(F)(F)F)cc3)[C@]3(C[C@H](CO)C3)C2=O)c(F)c1 [Compound 475B] | 600 |
| CC(C)(O)C1CC2(C1)C(=O)N(c1ccc(C#N)cc1F)CC(=O)N2Cc1ccc(C(F)(F)F)cc1 (stereo not drawn) [Compound 479B] | 2800 |
| CNC(=O)[C@H]1C[C@]2(C1)C(=O)N(c1ccc(C#N)cc1F)CC(=O)N2Cc1ccc(C(F)(F)F)cc1 [Compound 486B] | 700 |
| CNC(=O)[C@H]1C[C@]2(C1)C(=O)N(C(C)C)CC(=O)N2Cc1ccc(C(F)(F)F)cc1 [Compound 498B] | 29800 |
| CC(=O)N1CC2(C1)C(=O)N(c1ncc(Cl)cc1F)CC(=O)N2Cc1ccc(C(F)(F)F)cc1 [Compound 528, 2-acetyl-8-(5-chloro-3-fluoropyridin-2-yl)-5-(4-(trifluoromethyl)benzyl)-2,5,8-triazaspiro[3.5]nonane-6,9-dione] | 2900 |
| CC(=O)N1CC2(C1)C(=O)N(c1ncc(C#N)cc1C)CC(=O)N2Cc1ccc(C(F)(F)F)cc1 [Compound 529, 6-(2-acetyl-6,9-dioxo-5-(4-(trifluoromethyl)benzyl)-2,5,8-triazaspiro[3.5]nonan-8-yl)-5-methylnicotinonitrile] | 5500 |
| CC(=O)N1CC2(C1)C(=O)N(c1ncc(C#N)cc1F)CC(=O)N2Cc1ccc(C(F)(F)F)cc1 [Compound 530, 6-(2-acetyl-6,9-dioxo-5-(4-(trifluoromethyl)benzyl)-2,5,8-triazaspiro[3.5]nonan-8-yl)-5-fluoronicotinonitrile] | 4700 |
| CNc1ccccc1C(=O)N1CC2(C1)C(=O)N(c1ccc(C#N)cc1F)CC(=O)N2Cc1ccc(C(F)(F)F)cc1 [Compound 531, 3-fluoro-4-(2-(2-(methylamino)benzoyl)-6,9-dioxo-5-(4-(trifluoromethyl)benzyl)-2,5,8-triazaspiro[3.5]nonan-8-yl)benzonitrile] | 5000 |
| COC(=O)c1ccccc1N1CC2(C1)C(=O)N(c1ccc(C#N)cc1F)CC(=O)N2Cc1ccc(C(F)(F)F)cc1 [Compound 532, methyl 2-(8-(4-cyano-2-fluorophenyl)-6,9-dioxo-5-(4-(trifluoromethyl)benzyl)-2,5,8-triazaspiro[3.5]nonan-2-yl)benzoate] | 200 |
| COC(=O)c1cccc(N2CC3(C2)C(=O)N(c2ccc(C#N)cc2F)CC(=O)N3Cc2ccc(C(F)(F)F)cc2)c1 [Compound 533, methyl 3-(8-(4-cyano-2-fluorophenyl)-6,9-dioxo-5-(4-(trifluoromethyl)benzyl)-2,5,8-triazaspiro[3.5]nonan-2-yl)benzoate] | 300 |
| COC(=O)c1ccc(N2CC3(C2)C(=O)N(c2ccc(C#N)cc2F)CC(=O)N3Cc2ccc(C(F)(F)F)cc2)cc1 [Compound 534, methyl 4-(8-(4-cyano-2-fluorophenyl)-6,9-dioxo-5-(4-(trifluoromethyl)benzyl)-2,5,8-triazaspiro[3.5]nonan-2-yl)benzoate] | 200 |
| CNc1ccccc1N1CC2(C1)C(=O)N(c1ccc(C#N)cc1F)CC(=O)N2Cc1ccc(C(F)(F)F)cc1 [Compound 535, 3-fluoro-4-(2-(2-(methyl-amino)phenyl)-6,9-dioxo-5-(4-(trifluoromethyl)-benzyl)-2,5,8-triazaspiro-[3.5]nonan-8-yl)benzonitrile] | 300 |
| CNc1cccc(N2CC3(C2)C(=O)N(c2ccc(C#N)cc2F)CC(=O)N3Cc2ccc(C(F)(F)F)cc2)c1 [Compound 536, 3-fluoro-4-[2-[3-(methylamino)phenyl]-6,9-dioxo-5-[[4-(trifluoromethyl)phenyl]methyl]-2,5,8-triazaspiro[3.5]nonan-8-yl]benzonitrile] | 200 |
| CNC(=O)c1ccccc1N1CC2(C1)C(=O)N(c1ccc(C#N)cc1F)CC(=O)N2Cc1ccc(C(F)(F)F)cc1 [Compound 537, 2-(8-(4-cyano-2-fluorophenyl)-6,9-dioxo-5-(4-(trifluoromethyl)benzyl)-2,5,8-triazaspiro[3.5]nonan-2-yl)-N-methylbenzamide] | 300 |
| CNc1ccc(N2CC3(C2)C(=O)N(c2ccc(C#N)cc2F)CC(=O)N3Cc2ccc(C(F)(F)F)cc2)cc1 [Compound 538, 3-fluoro-4-(2-(4-(methylamino)phenyl)-6,9-dioxo-5-(4-(trifluoromethyl)benzyl)-2,5,8-triazaspiro[3.5]nonan-8-yl)benzonitrile] | 200 |
| CNC(=O)c1cccc(N2CC3(C2)C(=O)N(c2ccc(C#N)cc2F)CC(=O)N3Cc2ccc(C(F)(F)F)cc2)c1 [Compound 539, 3-(8-(4-cyano-2-fluorophenyl)-6,9-dioxo-5-(4-(trifluoromethyl)benzyl)-2,5,8-triazaspiro[3.5]nonan-2-yl)-N-methylbenzamide] | 200 |

— US11414424B2, “Cardiac sarcomere inhibitors” (Cytokinetics, Inc., priority 2018, dated 2022)
